Where two headings read alike, the source gives them in different places.
Tests used:
[1] = molecular target: T1, human recombinant adrenergic α2A receptor (Homo sapiens, UniProt P08913); assay: Adrenergic α2A radioligand binding ([3H]MK-912); settings: compound at 1 μM
T1 construct: expressed in transfected cells; host or cells: insect Sf9 cells
T1 sequence (P08913 1-465): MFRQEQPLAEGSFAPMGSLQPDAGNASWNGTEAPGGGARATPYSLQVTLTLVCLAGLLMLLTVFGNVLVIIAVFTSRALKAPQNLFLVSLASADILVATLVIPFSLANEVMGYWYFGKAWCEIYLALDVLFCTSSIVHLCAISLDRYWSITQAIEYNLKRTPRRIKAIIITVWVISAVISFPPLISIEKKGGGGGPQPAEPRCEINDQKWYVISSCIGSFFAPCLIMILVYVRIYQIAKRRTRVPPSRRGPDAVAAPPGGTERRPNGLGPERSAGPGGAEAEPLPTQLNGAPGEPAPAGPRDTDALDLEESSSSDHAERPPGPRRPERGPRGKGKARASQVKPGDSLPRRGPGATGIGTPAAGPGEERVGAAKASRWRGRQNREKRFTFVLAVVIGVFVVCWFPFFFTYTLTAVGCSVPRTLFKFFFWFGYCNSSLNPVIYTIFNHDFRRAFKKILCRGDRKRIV
Protocol: To evaluate in radioligand binding assays the activity of compounds of the invention, human recombinant adrenergic α2A receptor expressed in insect Sf9 cells (Uhlen S et al. J Pharmacol Exp Ther. 271:1558, 1994) in a modified Tris-HCl buffer (50 mM Tris-HCl, pH 7.4, 12.5 mM MgCl2, 2 mM EDTA) was used. Compounds of invention were incubated with 1 nM [^3H]MK-912 for 60 min. at 25° C. MK912 is (2S-trans)-1,3,4,5′,6,6′,7,12b-octahydro-1′,3′-dimethyl-spiro[2H-benzofuro[2,3-a]quinolizine-2,4′(1′H)-pyrimidin]-2′(3′H)-one hydrochloride Non-specific binding was estimated in the presence of 10 μM WB-4101 (2-(2,6-Dimethoxyphenoxyethyl)aminomethyl-1,4-benzodioxane hydrochloride). Receptor proteins were filtered and washed, the filters were then counted to determine [^3H]MK-912 specifically bound. Compounds were screened at 1 μM or lower, using 1% DMSO as vehicle. Biochemical assay results are presented as the percent inhibition of specific binding in Table 9.

[2] = molecular target: T2, human recombinant adrenergic α2B receptor (Homo sapiens, UniProt P18089); assay: Adrenergic α2B radioligand binding ([3H]Rauwolscine); settings: compound at 1 μM
T2 construct: expressed in transfected cells; host or cells: Chinese hamster ovary (CHO-K1) cells
T2 sequence (P18089 1-450): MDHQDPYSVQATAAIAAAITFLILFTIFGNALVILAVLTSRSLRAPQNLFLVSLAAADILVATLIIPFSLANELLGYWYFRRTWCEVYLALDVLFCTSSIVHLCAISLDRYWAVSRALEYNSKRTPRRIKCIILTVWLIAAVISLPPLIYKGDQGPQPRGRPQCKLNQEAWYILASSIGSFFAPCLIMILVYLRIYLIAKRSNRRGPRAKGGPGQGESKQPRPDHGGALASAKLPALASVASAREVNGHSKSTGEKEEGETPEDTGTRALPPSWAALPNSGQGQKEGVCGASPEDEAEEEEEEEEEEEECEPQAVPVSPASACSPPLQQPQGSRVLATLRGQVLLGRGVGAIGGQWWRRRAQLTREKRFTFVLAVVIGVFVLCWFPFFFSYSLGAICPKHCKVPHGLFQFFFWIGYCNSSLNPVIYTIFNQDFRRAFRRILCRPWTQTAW
Protocol: To evaluate in radioligand binding assays the activity of compounds of the invention, human recombinant adrenergic α2B receptor expressed in Chinese hamster ovary (CHO-K1) cells (Uhlen S et al. Eur J Pharmacol. 343(1):93, 1998) in a modified Tris-HCl buffer (50 mM Tris-HCl, pH 7.4, 12.5 mM MgCl2, 1 mM EDTA, 0.2% BSA) was used. Compounds of the invention were incubated with 2.5 nM [^3H]Rauwolscine for 60 min. at 25° C. Non-specific binding was estimated in the presence of 10 μM Prozosin. Receptor proteins were filtered and washed, the filters were then counted to determine [^3H]Rauwolscine specifically bound. Compounds were screened at 1 μM or lower, using 1% DMSO as vehicle. Biochemical assay results are presented as the percent inhibition of specific binding in Table 9.

[3] = molecular target: T3, human recombinant serotonin (5-Hydroxytryptamine) 5-HT2A receptor (Homo sapiens, UniProt P28223); assay: Serotonin 5-HT2A radioligand binding ([3H]Ketanserin); settings: read-out: Inhibition of ligand binding, Serotonin 5-HT2A (percent inhibition of specific binding), compound at 1 μM
T3 construct: expressed in transfected cells; host or cells: Chinese hamster ovary (CHO-K1) cells
Protocol: Compounds of the invention were incubated with 0.5 nM [^3H]Ketanserin for 60 min. at 25° C. Non-specific binding was estimated in the presence of 1 μM Mianserin. Receptor proteins were filtered and washed, the filters were then counted to determine [^3H]Ketanserin specifically bound.

[4] = molecular target: T4, human recombinant serotonin (5-Hydroxytryptamine) 5-HT6 receptor (Homo sapiens, UniProt P50406); assay: Serotonin 5-HT6 radioligand binding ([3H]LSD); settings: compound at 1 μM; read-out: Inhibition of ligand binding, Serotonin 5-HT6 (percent inhibition of specific binding)
T4 construct: expressed in transfected cells; host or cells: human HeLa cells
Protocol: Compounds of the invention were incubated with 1.5 nM [3H]Lysergic acid diethylamide (LSD) for 120 min. at 37° C. […] Receptor proteins were filtered and washed, the filters were then counted to determine [3H]LSD specifically bound. Compounds were screened at 1 μM or lower, using 1% DMSO as vehicle. Biochemical assay results are presented as the percent inhibition of specific binding in Table 10.

[5] = molecular target: human recombinant serotonin (5-Hydroxytryptamine) 5-HT7 receptor (Homo sapiens, UniProt P34969); assay: Serotonin 5-HT7 radioligand binding ([3H]LSD); settings: compound at 1 μM; read-out: Inhibition of ligand binding, Serotonin 5-HT7 (percent inhibition of specific binding)
Description: Receptor proteins were filtered and washed, the filters were then counted to determine [^3H]LSD specifically bound.

[6] = molecular target: human dopamine D2L receptor (Homo sapiens, UniProt P14416); assay: Dopamine D2L radioligand binding ([3H]Spiperone); settings: compound at 1 μM
Description: Non-specific binding was estimated in the presence of […] Haloperidol. Receptor proteins were filtered and washed, the filters were then counted to determine [^3H]Spiperone specifically bound. […] Biochemical assay results are presented as the percent inhibition of specific binding in Table 9.

[7] = percent inhibition of specific binding, read-out: Inhibition of ligand binding, Adrenergic α2A
[8] = percent inhibition of specific binding, read-out: Inhibition of ligand binding, Adrenergic α2B
[9] = percent inhibition of specific binding, read-out: Inhibition of ligand binding, Dopamine D2L

Sequence of human recombinant serotonin (5-Hydroxytryptamine) 5-HT7 receptor (P34969 whole entry): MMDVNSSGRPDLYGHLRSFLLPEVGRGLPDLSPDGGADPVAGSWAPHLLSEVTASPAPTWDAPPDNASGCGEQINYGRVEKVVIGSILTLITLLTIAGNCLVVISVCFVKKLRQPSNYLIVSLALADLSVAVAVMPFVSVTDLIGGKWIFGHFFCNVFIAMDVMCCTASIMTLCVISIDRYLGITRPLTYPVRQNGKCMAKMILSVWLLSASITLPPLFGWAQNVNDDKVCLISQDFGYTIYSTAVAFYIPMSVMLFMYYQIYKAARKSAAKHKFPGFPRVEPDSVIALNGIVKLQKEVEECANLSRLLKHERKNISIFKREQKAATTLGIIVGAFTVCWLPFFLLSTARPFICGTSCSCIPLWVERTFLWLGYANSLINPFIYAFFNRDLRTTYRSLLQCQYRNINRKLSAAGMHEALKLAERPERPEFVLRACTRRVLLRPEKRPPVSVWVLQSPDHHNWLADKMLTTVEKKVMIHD
Sequence of human dopamine D2L receptor (P14416 whole entry): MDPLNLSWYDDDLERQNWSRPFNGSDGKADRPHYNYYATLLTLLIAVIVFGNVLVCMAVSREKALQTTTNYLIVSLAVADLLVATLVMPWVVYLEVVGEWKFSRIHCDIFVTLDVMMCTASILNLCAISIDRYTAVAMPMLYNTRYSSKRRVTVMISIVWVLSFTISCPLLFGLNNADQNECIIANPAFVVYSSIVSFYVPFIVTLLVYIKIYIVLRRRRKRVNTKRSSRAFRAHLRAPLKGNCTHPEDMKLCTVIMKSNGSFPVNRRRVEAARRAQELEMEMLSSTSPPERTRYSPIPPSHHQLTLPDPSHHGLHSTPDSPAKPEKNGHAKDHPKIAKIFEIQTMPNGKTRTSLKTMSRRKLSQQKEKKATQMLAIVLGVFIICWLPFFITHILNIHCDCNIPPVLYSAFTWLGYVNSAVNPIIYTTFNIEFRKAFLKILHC
T4 sequence (P50406 whole entry): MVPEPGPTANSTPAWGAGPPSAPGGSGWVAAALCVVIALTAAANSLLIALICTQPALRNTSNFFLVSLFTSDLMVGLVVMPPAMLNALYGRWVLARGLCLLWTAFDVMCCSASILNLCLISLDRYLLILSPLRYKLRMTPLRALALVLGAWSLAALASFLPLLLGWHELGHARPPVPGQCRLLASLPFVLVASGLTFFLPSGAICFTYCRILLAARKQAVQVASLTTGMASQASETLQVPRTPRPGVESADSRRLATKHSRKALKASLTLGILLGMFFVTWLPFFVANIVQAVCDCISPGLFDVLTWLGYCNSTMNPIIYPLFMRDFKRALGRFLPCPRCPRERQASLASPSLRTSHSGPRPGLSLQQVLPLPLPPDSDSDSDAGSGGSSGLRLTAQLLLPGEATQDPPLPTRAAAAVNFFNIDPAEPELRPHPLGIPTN
T3 sequence (P28223 whole entry): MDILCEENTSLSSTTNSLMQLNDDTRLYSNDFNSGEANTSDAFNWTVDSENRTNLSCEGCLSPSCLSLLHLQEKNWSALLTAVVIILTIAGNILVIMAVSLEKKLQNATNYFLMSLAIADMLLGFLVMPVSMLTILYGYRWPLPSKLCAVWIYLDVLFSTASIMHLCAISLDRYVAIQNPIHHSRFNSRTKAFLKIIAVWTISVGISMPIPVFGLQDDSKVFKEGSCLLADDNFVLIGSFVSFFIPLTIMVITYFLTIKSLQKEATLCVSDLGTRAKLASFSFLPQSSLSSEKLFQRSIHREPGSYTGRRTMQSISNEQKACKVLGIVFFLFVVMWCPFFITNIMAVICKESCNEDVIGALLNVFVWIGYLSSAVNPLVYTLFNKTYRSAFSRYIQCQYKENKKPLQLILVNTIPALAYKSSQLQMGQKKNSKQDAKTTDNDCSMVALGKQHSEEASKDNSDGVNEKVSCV

SMILES	inhibition at 1 µM [1, 7]	inhibition at 1 µM [2, 8]	inhibition at 1 µM [3]	inhibition at 1 µM [4]	inhibition at 1 µM [5]	inhibition at 1 µM [6, 9]	inhibition at 1 µM ([1]; read-out: Inhibition of ligand binding, Adrenergic α2A (percent inhibition of specific binding))	inhibition at 1 µM ([2]; […] [3H]Rauwolscine, read-out: Inhibition of ligand binding, Adrenergic α2B (percent inhibition of specific binding))	inhibition at 1 µM ([6]; […] [3H]Spiperone, read-out: Inhibition of ligand binding, Dopamine D2L (percent inhibition of specific binding))
Cc1ccc(C(O)Cn2c3c(c4ccccc42)CN(C)CC3)cc1 (racemic) [Compound 53, racemic-2-(1,2,3,4-tetrahydro-2-methylpyrido[4,3-b]indol-5-yl)-1-p-tolylethanol]	93%	114%	100%	49%	87%	–	–	–	–
CCN1CCc2c(c3ccccc3n2CC(O)c2ccc(C)cc2)C1 (racemic) [Compound 44, racemic-2-(2-ethyl-1,2,3,4-tetrahydropyrido[4,3-b]indol-5-yl)-1-p-tolylethanol]	65%	94%	80%	9%	42%	–	–	–	–
Cc1ccc2c(c1)c1c(n2CC(O)c2ccc(C)nc2)CCN(C)C1 (centres unmarked) [Compound 48, 2-(2,8-dimethyl-3,4-dihydro-1H-pyrido[4,3-b]indol-5(2H)-yl)-1-(6-methylpyridin-3-yl)ethanol]	83%	100%	73%	59%	–	8%	–	–	–
CN1CCc2c(c3cc(Cl)ccc3n2C/C=C/c2ccncc2)C1 [Compound 127, 8-chloro-2,3,4,5-tetrahydro-2-methyl-5-((E)-3-(pyridin-4-yl)allyl)-1H-pyrido[4,3-b]indole]	60%	68%	84%	41%	–	10%	–	–	–
C=C(Cn1c2c(c3cc(Cl)ccc31)CN(C)CC2)c1ccc(OC)c(F)c1 [Compound 140, 8-chloro-5-(2-(3-fluoro-4-methoxyphenyl)allyl)-2,3,4,5-tetrahydro-2-methyl-1H-pyrido[4,3-b]indole]	86%	106%	98%	75%	–	57%	–	–	–
CN1CCc2c(c3cc(Cl)ccc3n2CC(O)c2cccnc2)C1 (centres unmarked) [Compound 56, 2-(8-chloro-1,2,3,4-tetrahydro-2-methylpyrido[4,3-b]indol-5-yl)-1-(pyridin-3-yl)ethanol]	65%	112%	68%	62%	–	4%	–	–	–
CN1CCc2c(c3cc(Cl)ccc3n2C2=C(c3cccnc3)CCCC2)C1 [Compound No. 166, 8-chloro-2-methyl-5-(2-(pyridin-3-yl)cyclohex-1-enyl)-2,3,4,5-tetrahydro-1H-pyrido[4,3-b]indole]	44%	63%	46%	6%	–	-2%	–	–	–
C=C(Cn1c2c(c3cc(Cl)ccc31)CN(C)CC2)c1ccc(C)nc1 [Compound 136, 8-chloro-2,3,4,5-tetrahydro-2-methyl-5-(2-(6-methylpyridin-3-yl)allyl)-1H-pyrido[4,3-b]indole]	95%	90%	100%	73%	–	54%	–	–	–
Cc1ccc2c(c1)c1c(n2CC(C)(O)c2ccc(C)nc2)CCN(C)C1 (centres unmarked) [Compound 52, 1-(1,2,3,4-tetrahydro-2,8-dimethylpyrido[4,3-b]indol-5-yl)-2-(6-methylpyridin-3-yl)propan-2-ol]	84%	104%	83%	37%	–	12%	–	–	–
CN1CCc2c(c3cc(Cl)ccc3n2C#Cc2ccc(F)cc2)C1 [Compound No. 475, 8-chloro-5-((4-fluorophenyl)ethynyl)-2-methyl-2,3,4,5-tetrahydro-1H-pyrido[4,3-b]indole]	–	–	99%	99%	–	–	93%	106%	95%
COc1ccc(C(C)(O)Cn2c3c(c4cc(C)ccc42)CN(C)CC3)cc1F (centres unmarked) [Compound 173, 1-(2,8-dimethyl-3,4-dihydro-1H-pyrido[4,3-b]indol-5(2H)-yl)-2-(3-fluoro-4-methoxyphenyl)propan-2-ol]	94%	98%	–	85%	103%	32%	–	–	–
CN1CCc2c(c3cc(Cl)ccc3n2CC(C)(O)c2cccnc2)C1 (centres unmarked) [Compound 61, 1-(8-chloro-1,2,3,4-tetrahydro-2-methylpyrido[4,3-b]indol-5-yl)-2-(pyridin-3-yl)propan-2-ol]	76%	107%	77%	65%	–	19%	–	–	–
C=C(Cn1c2c(c3cc(Cl)ccc31)CN(C)CC2)c1cccnc1 [Compound 133, 8-chloro-2,3,4,5-tetrahydro-2-methyl-5-(2-(pyridin-3-yl)allyl)-1H-pyrido[4,3-b]indole]	89%	103%	96%	80%	–	29%	–	–	–

From patent US8906925B2, “Pyrido[4,3-B]indoles containing rigid moieties” (Medivation Technologies, Inc., priority 2008, dated 2014)
